{
  "source": "paper PMC6268968",
  "about": "(Molecules, 2012)",
  "note": "pIC50: −log10 of the molar value.",
  "data": [
    {"target": "T1, Acetylcholinesterase (Electrophorus electricus, UniProt O42275)", "T1 construct": "gene ache", "T1 sequence (O42275 24-633)": "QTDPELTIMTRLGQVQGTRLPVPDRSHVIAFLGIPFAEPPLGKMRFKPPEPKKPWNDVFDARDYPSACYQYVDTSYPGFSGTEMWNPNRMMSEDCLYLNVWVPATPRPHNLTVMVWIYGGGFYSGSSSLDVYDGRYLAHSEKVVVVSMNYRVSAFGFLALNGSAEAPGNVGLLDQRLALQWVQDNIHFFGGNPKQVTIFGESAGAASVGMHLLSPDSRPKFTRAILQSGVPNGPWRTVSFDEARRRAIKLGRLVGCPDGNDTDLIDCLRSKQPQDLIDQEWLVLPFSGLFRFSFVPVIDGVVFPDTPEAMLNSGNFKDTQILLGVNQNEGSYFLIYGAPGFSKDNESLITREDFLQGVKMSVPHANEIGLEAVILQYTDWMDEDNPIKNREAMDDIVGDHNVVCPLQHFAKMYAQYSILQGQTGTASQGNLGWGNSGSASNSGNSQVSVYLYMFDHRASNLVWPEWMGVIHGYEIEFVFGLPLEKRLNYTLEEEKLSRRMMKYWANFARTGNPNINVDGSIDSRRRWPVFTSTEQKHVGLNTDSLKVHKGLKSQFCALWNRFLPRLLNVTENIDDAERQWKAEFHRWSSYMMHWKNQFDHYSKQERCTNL", "experiment": "Ellman spectrophotometric assay (acetylthiocholine/DTNB, […] nm)", "type": "biochemical", "values": [
      {"molecule": "O=C(/C=C/c1ccc(O)cc1)NCCc1ccc(O)cc1", "note": "[compound 1, trans-N-coumaroyltyramine]", "pIC50": 4.01},
      {"molecule": "COc1cc(/C=C/C(=O)NCCc2ccc(O)cc2)ccc1O", "note": "[compound 2, trans-N-feruloyltyramine]", "pIC50": 4.07},
      {"molecule": "O=C(/C=C/c1ccc(O)c(O)c1)NCCc1ccc(O)cc1", "note": "[compound 3, trans-N-caffeoyltyramine]", "pIC50": 4.07}
    ]}
  ]
}
